Reference: article PMC4255919 (Nature, 2014)

What was measured:
[1] = molecular target: T1, GluCl (C. elegans GluClα, GluClcryst) (Caenorhabditis elegans, UniProt G5EBR3, INS363AGT/DEL364-421); assay: X-ray crystal structure at […] Å; assay type: binding
T1 sequence (G5EBR3 with tags, fused parts or gaps INS363AGT/DEL364-421): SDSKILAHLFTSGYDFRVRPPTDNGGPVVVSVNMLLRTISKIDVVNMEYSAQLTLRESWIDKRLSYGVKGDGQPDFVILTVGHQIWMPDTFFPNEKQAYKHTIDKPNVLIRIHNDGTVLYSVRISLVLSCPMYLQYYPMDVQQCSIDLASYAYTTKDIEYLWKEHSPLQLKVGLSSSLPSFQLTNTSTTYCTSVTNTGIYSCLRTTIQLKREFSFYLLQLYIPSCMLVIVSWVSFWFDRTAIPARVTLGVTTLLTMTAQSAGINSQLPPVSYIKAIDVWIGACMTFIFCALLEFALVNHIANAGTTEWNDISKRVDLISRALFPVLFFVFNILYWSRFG

[2] = molecular target: GluCl (C. elegans GluClα, GluClcryst) (Caenorhabditis elegans, UniProt G5EBR3, DEL364-421/INS363AGT); assay: radioligand competition with [3H]-ivermectin; assay type: binding

## CCCCCCCC/C=C\CCCCCCCC(=O)O[C@@H](COC(=O)CCCCCCCCCCCCCCC)COP(=O)([O-])OCC[N+](C)(C)C [POPC, 1-palmitoyl-2-oleoyl-sn-glycero-3-phosphocholine]
[1]
  X-ray crystal structure at 3.2 Å: We modeled these densities as POPC molecules with the phosphocholine head group pointing towards the center of the pore

## CCCCCCCC/C=C\CCCCCCCC(=O)O[C@H](COC(=O)CCCCCCCCCCCCCCC)COP(=O)(O)OC[C@H](N)C(=O)O [POPS, 1-palmitoyl-2-oleoyl-sn-glycero-3-phosphoserine]
[2]
  Ki: 167 µM
